Test results published in patent US8507557B2, “Potentiators of insulin secretion” (Wisconsin Alumni Research Foundation, priority 2003, dated 2013).

Legend:
[1] = system: hyperexcitable Newgard Ins-1 cells; conditions: low (3 mM) or high (15 mM) glucose; 2 hours at 3 mM glucose with compound, then 2 hours
Description: The cells were incubated at 3 mM glucose with the indicated concentrations of either αKG or the DPD analog for 2 hours. Then, the cells were incubated for an additional 2 hours in either 3 or 15 mM glucose.

Ins-1 cell = Ins-1 cell insulin secretion assay, preliminary SAR study in high glucose (FIG. 1); type: cell-based, rat; conditions: presence of high glucose; Ins-1 cell assay
Description: The ability of various structurally-related compounds to alter insulin secretion in the presence of high glucose was tested in a preliminary structure-activity relationship (SAR) study to elucidate the molecular structures relevant to the insulin segretagogue potential of DPD and other αKG analogs. The compounds tested, shown in FIG. 1, are presented in order of decreasing ability to secrete insulin in an Ins-1 cell assay of the type described below in the Working Example. Each tested compound is commercially available and all were purchased from Sigma-Aldrich. Each compound contained two carboxylate groups. Variables evaluated in this study included the relative position of the carboxylate groups to one another, as well as the presence or absence of a nitrogen or sulfur group, additional R-groups, and esterified carboxy groups.

pancreatic β cells = assay: Insulin secretion from pancreatic β cells with Ca2+ channel, α2-adrenergic and KATP modulators; conditions: for effect on insulin secretion elicited by glyburide: in the presence of glyburide; for effect on insulin secretion caused by glucose, KIC, αKG or DPD: α2-adrenergic agonists
Description: The physiological relevance of insulin secretion from pancreatic β cells elicited by αKG was evaluated.
Possible targets for the segretagogue action of αKG were examined by reevaluating targets implicated for KIC-dependent increases in insulin secretion, since the effects of KIC are likely exerted through transamination that yields αKG. […] To biochemically test this hypothesis the inventors used known drugs to modulate KATP and then determined whether αKG and DPD could still affect insulin secretion.

rat Ins-1 beta cell line = conditions: rat Ins-1 cells; effect not as dramatic as in responsive cell line
β cells = conditions: without affecting glucose metabolism; cited from earlier work
[2] = as reported in Diabetes Care 25:1271 (2002); cited from earlier work

With `CCOC(=O)c1ccnc(C(=O)OCC)c1` [DPD, 2,4-diethyl pyridine dicarboxylate] the “effect upon insulin secretion (fractional insulin release)” value [1] was “marked positive effect”, the insulin secretion (Ins-1 cell) was about 14% and the “potency on insulin secretion relative to αKG” value (pancreatic β cells) was “extremely potent relative to αKG”. For the same compound, the “effect on insulin secretion elicited by glyburide” value (“effect … by glyburide” for short) (pancreatic β cells) was “augmented” and the “effect on insulin secretion (fractional insulin release)” value (rat Ins-1 beta cell line) was “increase in insulin secretion”.

For `CC1=NS(=O)(=O)c2cc(Cl)ccc2N1` [Diazoxide], the “effect on ability of αKG, DPD and KIC to promote insulin release” value (pancreatic β cells; KATP agonist) was “completely suppresses”.

In the case of `CC(C)CC(=O)C(=O)O` [KIC, α-ketoisocaproic acid], the “effect … by glyburide” value (pancreatic β cells) is reported as “augmented”.

With `Clc1cccc(Cl)c1N=C1NCCN1` [clonidine] the “effect on insulin secretion caused by glucose, KIC, αKG or DPD” value (pancreatic β cells) was “greatly suppressed”.

In the case of `CNC[C@H](O)c1ccc(O)c(O)c1` [epinephrine], the “effect on insulin secretion caused by glucose, KIC, αKG or DPD” value (pancreatic β cells) is reported as “greatly suppressed”.

For `O=c1c(-c2ccc(O)cc2)coc2cc(O)cc(O)c12` [genistein], the “effect on KIC-stimulated insulin release” value (β cells) is listed as “inhibited”.

For `Cc1cnc(C(=O)NCCc2ccc(S(=O)(=O)NC(=O)NC3CCCCC3)cc2)cn1` [glipizide], the increase in insulin [2] is given as 54%.

With `COc1ccc(Cl)cc1C(=O)NCCc1ccc(S(=O)(=O)NC(=O)NC2CCCCC2)cc1` [glyburide] the insulin secretion elicited (pancreatic β cells; KATP antagonist) was “elicits an insulin secretion”.

For `CCOc1cc(CC(=O)N[C@@H](CC(C)C)c2ccccc2N2CCCCC2)ccc1C(=O)O` [repaglinide], the increase in insulin [2] is given as 47%.

For `N#C/C(=C\c1ccc(O)c(O)c1)C(N)=S` [tyrphostin A47], the “effect on KIC-stimulated insulin release” value (β cells) is listed as “inhibited”.

With `O=C(O)CCC(=O)C(=O)O` [αKG, α-ketoglutarate] the “effect … by glyburide” value (pancreatic β cells) was “augmented”.
